{
  "source": "the NIST ThermoML archive (doi:10.1016/j.tca.2006.05.019)",
  "details": "101.33 kPa, Crystal, Vacuum adiabatic calorimetry",
  "note": "Numbers after ± are expanded uncertainties.",
  "data": [
    {"smiles": "O=P([O-])([O-])[O-].[Lu+3]", "note": "[lutetium phosphate]", "values": [
      {"measurement": "molar entropy", "setting": "6 K", "result": "0.012 ± 0.015", "unit": "J/K/mol"},
      {"measurement": "molar entropy", "setting": "8 K", "result": "0.0284 ± 0.015", "unit": "J/K/mol"},
      {"measurement": "molar entropy", "setting": "10 K", "result": "0.0553 ± 0.016", "unit": "J/K/mol"},
      {"measurement": "molar entropy", "setting": "12 K", "result": "0.095 ± 0.016", "unit": "J/K/mol"},
      {"measurement": "molar entropy", "setting": "14 K", "result": "0.152 ± 0.017", "unit": "J/K/mol"},
      {"measurement": "molar entropy", "setting": "16 K", "result": "0.226 ± 0.017", "unit": "J/K/mol"},
      {"measurement": "molar entropy", "setting": "18 K", "result": "0.322 ± 0.018", "unit": "J/K/mol"},
      {"measurement": "molar entropy", "setting": "20 K", "result": "0.441 ± 0.019", "unit": "J/K/mol"},
      {"measurement": "molar entropy", "setting": "25 K", "result": "0.858 ± 0.021", "unit": "J/K/mol"},
      {"measurement": "molar entropy", "setting": "30 K", "result": "1.47 ± 0.06", "unit": "J/K/mol"},
      {"measurement": "molar entropy", "setting": "35 K", "result": "2.28 ± 0.07", "unit": "J/K/mol"},
      {"measurement": "molar entropy", "setting": "40 K", "result": "3.29 ± 0.07", "unit": "J/K/mol"},
      {"measurement": "molar entropy", "setting": "45 K", "result": "4.48 ± 0.07", "unit": "J/K/mol"},
      {"measurement": "molar entropy", "setting": "50 K", "result": "5.82 ± 0.08", "unit": "J/K/mol"},
      {"measurement": "molar entropy", "setting": "55 K", "result": "7.3 ± 0.08", "unit": "J/K/mol"},
      {"measurement": "molar entropy", "setting": "60 K", "result": "8.89 ± 0.09", "unit": "J/K/mol"},
      {"measurement": "molar entropy", "setting": "65 K", "result": "10.58 ± 0.09", "unit": "J/K/mol"},
      {"measurement": "molar entropy", "setting": "70 K", "result": "12.33 ± 0.1", "unit": "J/K/mol"},
      {"measurement": "molar entropy", "setting": "75 K", "result": "14.15 ± 0.1", "unit": "J/K/mol"},
      {"measurement": "molar entropy", "setting": "80 K", "result": "16.02 ± 0.11", "unit": "J/K/mol"},
      {"measurement": "molar entropy", "setting": "85 K", "result": "17.93 ± 0.11", "unit": "J/K/mol"},
      {"measurement": "molar entropy", "setting": "90 K", "result": "19.88 ± 0.33", "unit": "J/K/mol"},
      {"measurement": "molar entropy", "setting": "95 K", "result": "21.85 ± 0.33", "unit": "J/K/mol"},
      {"measurement": "molar entropy", "setting": "100 K", "result": "23.84 ± 0.34", "unit": "J/K/mol"},
      {"measurement": "molar entropy", "setting": "110 K", "result": "27.89 ± 0.34", "unit": "J/K/mol"},
      {"measurement": "molar entropy", "setting": "120 K", "result": "31.97 ± 0.35", "unit": "J/K/mol"},
      {"measurement": "molar entropy", "setting": "130 K", "result": "36.07 ± 0.35", "unit": "J/K/mol"},
      {"measurement": "molar entropy", "setting": "140 K", "result": "40.18 ± 0.36", "unit": "J/K/mol"},
      {"measurement": "molar entropy", "setting": "150 K", "result": "44.27 ± 0.37", "unit": "J/K/mol"},
      {"measurement": "molar entropy", "setting": "160 K", "result": "48.34 ± 0.37", "unit": "J/K/mol"},
      {"measurement": "molar entropy", "setting": "170 K", "result": "52.38 ± 0.38", "unit": "J/K/mol"},
      {"measurement": "molar entropy", "setting": "180 K", "result": "56.34 ± 0.38", "unit": "J/K/mol"},
      {"measurement": "molar entropy", "setting": "190 K", "result": "60.33 ± 0.39", "unit": "J/K/mol"},
      {"measurement": "molar entropy", "setting": "200 K", "result": "64.24 ± 0.4", "unit": "J/K/mol"},
      {"measurement": "molar entropy", "setting": "210 K", "result": "68.09 ± 0.4", "unit": "J/K/mol"},
      {"measurement": "molar entropy", "setting": "220 K", "result": "71.89 ± 0.41", "unit": "J/K/mol"},
      {"measurement": "molar entropy", "setting": "230 K", "result": "75.64 ± 0.41", "unit": "J/K/mol"},
      {"measurement": "molar entropy", "setting": "240 K", "result": "79.34 ± 0.42", "unit": "J/K/mol"},
      {"measurement": "molar entropy", "setting": "250 K", "result": "82.98 ± 0.42", "unit": "J/K/mol"},
      {"measurement": "molar entropy", "setting": "260 K", "result": "86.56 ± 0.43", "unit": "J/K/mol"},
      {"measurement": "molar entropy", "setting": "270 K", "result": "90.09 ± 0.44", "unit": "J/K/mol"},
      {"measurement": "molar entropy", "setting": "280 K", "result": "93.57 ± 0.44", "unit": "J/K/mol"},
      {"measurement": "molar entropy", "setting": "290 K", "result": "96.99 ± 0.45", "unit": "J/K/mol"},
      {"measurement": "molar entropy", "setting": "300 K", "result": "100.4 ± 0.5", "unit": "J/K/mol"},
      {"measurement": "molar entropy", "setting": "310 K", "result": "103.7 ± 0.5", "unit": "J/K/mol"},
      {"measurement": "molar entropy", "setting": "320 K", "result": "106.9 ± 0.5", "unit": "J/K/mol"}
    ]}
  ]
}
